Calls of active or inactive are those of the source. The rule behind the calls is not given here.

This series concerns CCRIS mutagenicity, Ames/micronucleus/aberration tests. In words: CCRIS mutagenicity studies.
The mark [1] stands for this setting: Test System: AMES SALMONELLA TYPHIMURIUM, Strain/Indicator: TA100, Metabolic Activation: NONE, Method: PREINCUBATION
[2] abbreviates: Test System: AMES SALMONELLA TYPHIMURIUM, Strain/Indicator: TA1535, Metabolic Activation: NONE, Method: PREINCUBATION
[3] abbreviates: Test System: AMES SALMONELLA TYPHIMURIUM, Strain/Indicator: TA98, Metabolic Activation: NONE, Method: STANDARD PLATE.
Where [4] appears, read: Test System: AMES SALMONELLA TYPHIMURIUM, Strain/Indicator: TA100, Metabolic Activation: NONE, Method: STANDARD PLATE.

On to `Brc1ccc(-c2ccccc2)cc1`, for which the mutagenic call by setting is: (Test System: AMES SALMONELLA TYPHIMURIUM, Strain/Indicator: TA98, Metabolic Activation: HAMSTER, LIVER, S-9, AROCLOR 1254, Method: PREINCUBATION) “inactive; negative”; (Test System: AMES SALMONELLA TYPHIMURIUM, Strain/Indicator: TA98, Metabolic Activation: NONE, Method: PREINCUBATION) “inactive; negative”; (Test System: AMES SALMONELLA TYPHIMURIUM, Strain/Indicator: TA98, Metabolic Activation: RAT, LIVER, S-9, AROCLOR 1254, Method: PREINCUBATION) “inactive; negative”; (Test System: AMES SALMONELLA TYPHIMURIUM, Strain/Indicator: TA100, Metabolic Activation: HAMSTER, LIVER, S-9, AROCLOR 1254, Method: PREINCUBATION) “inactive; negative”; under setting [1], “inactive; negative”; (Test System: AMES SALMONELLA TYPHIMURIUM, Strain/Indicator: TA100, Metabolic Activation: RAT, LIVER, S-9, AROCLOR 1254, Method: PREINCUBATION) “inactive; negative”. For the same molecule, the mutagenic call by setting is: (Test System: AMES SALMONELLA TYPHIMURIUM, Strain/Indicator: TA1535, Metabolic Activation: HAMSTER, LIVER, S-9, AROCLOR 1254, Method: PREINCUBATION) “inactive; negative”; under setting [2], “inactive; negative”; (Test System: AMES SALMONELLA TYPHIMURIUM, Strain/Indicator: TA1535, Metabolic Activation: RAT, LIVER, S-9, AROCLOR 1254, Method: PREINCUBATION) “inactive; negative”; (Test System: AMES SALMONELLA TYPHIMURIUM, Strain/Indicator: TA1537, Metabolic Activation: HAMSTER, LIVER, S-9, AROCLOR 1254, Method: PREINCUBATION) “inactive; negative”; (Test System: AMES SALMONELLA TYPHIMURIUM, Strain/Indicator: TA1537, Metabolic Activation: NONE, Method: PREINCUBATION) “inactive; negative”; (Test System: AMES SALMONELLA TYPHIMURIUM, Strain/Indicator: TA1537, Metabolic Activation: RAT, LIVER, S-9, AROCLOR 1254, Method: PREINCUBATION) “inactive; negative”.
Regarding `c1cc2ccc3nc4ccccc4c4ccc(c1)c2c34`, the mutagenic call runs as follows: (Test System: AMES SALMONELLA TYPHIMURIUM, Strain/Indicator: TA98, Metabolic Activation: NONE) “inactive; negative”; (Test System: AMES SALMONELLA TYPHIMURIUM, Strain/Indicator: TA98, Metabolic Activation: S-9) “active; positive”; (Test System: AMES SALMONELLA TYPHIMURIUM, Strain/Indicator: TA100, Metabolic Activation: NONE) “inactive; negative”; (Test System: AMES SALMONELLA TYPHIMURIUM, Strain/Indicator: TA100, Metabolic Activation: S-9) “active; positive”.
With `Nc1ccccc1S(=O)(=O)O`, the mutagenic call runs as follows: (Test System: AMES SALMONELLA TYPHIMURIUM, Strain/Indicator: TA97, Metabolic Activation: HAMSTER, LIVER, S-9, AROCLOR 1254 (10 OR 30%), Method: PREINCUBATION) “inactive; negative”; (Test System: AMES SALMONELLA TYPHIMURIUM, Strain/Indicator: TA97, Metabolic Activation: NONE, Method: PREINCUBATION) “inactive; negative”; (Test System: AMES SALMONELLA TYPHIMURIUM, Strain/Indicator: TA97, Metabolic Activation: RAT, LIVER, S-9, AROCLOR 1254 (10%), Method: PREINCUBATION) “inactive; negative”; (Test System: AMES SALMONELLA TYPHIMURIUM, Strain/Indicator: TA97, Metabolic Activation: RAT, LIVER, S-9, AROCLOR 1254 (30%), Method: PREINCUBATION) “inactive; negative”; (Test System: AMES SALMONELLA TYPHIMURIUM, Strain/Indicator: TA98, Metabolic Activation: HAMSTER, LIVER, S-9, AROCLOR 1254 (10 OR 30%), Method: PREINCUBATION) “inactive; negative”; (Test System: AMES SALMONELLA TYPHIMURIUM, Strain/Indicator: TA98, Metabolic Activation: RAT, LIVER, S-9, AROCLOR 1254 (10 OR 30%), Method: PREINCUBATION) “inactive; negative”. Also, the mutagenic call by setting is: (Test System: AMES SALMONELLA TYPHIMURIUM, Strain/Indicator: TA100, Metabolic Activation: HAMSTER, LIVER, S-9, AROCLOR 1254 (10 OR 30%), Method: PREINCUBATION) “inactive; negative”; under setting [1], “inactive; negative”; (Test System: AMES SALMONELLA TYPHIMURIUM, Strain/Indicator: TA100, Metabolic Activation: RAT, LIVER, S-9, AROCLOR 1254 (10 OR 30%), Method: PREINCUBATION) “inactive; negative”; (Test System: AMES SALMONELLA TYPHIMURIUM, Strain/Indicator: TA1535, Metabolic Activation: HAMSTER, LIVER, S-9, AROCLOR 1254 (10 OR 30%), Method: PREINCUBATION) “inactive; negative”; under setting [2], “inactive; negative”; (Test System: AMES SALMONELLA TYPHIMURIUM, Strain/Indicator: TA1535, Metabolic Activation: RAT, LIVER, S-9, AROCLOR 1254 (10 OR 30%), Method: PREINCUBATION) “inactive; negative”.
Take `OCCOc1ccccc1`: the mutagenic call is “inactive; negative” (Test System: Ames Salmonella typhimurium, Strain/Indicator: TA98, Metabolic Activation: None, Method: Preincubation); “inactive; negative” (Test System: Ames Salmonella typhimurium, Strain/Indicator: TA98, Metabolic Activation: Rat, Liver, S-9, Phenobarbital and 5,6-benzoflavone, Method: Preincubation); “inactive; negative” (Test System: Ames Salmonella typhimurium, Strain/Indicator: TA100, Metabolic Activation: None, Method: Preincubation); “inactive; negative” (Test System: Ames Salmonella typhimurium, Strain/Indicator: TA100, Metabolic Activation: Rat, Liver, S-9, Phenobarbital and 5,6-benzoflavone, Method: Preincubation); “inactive; negative” (Test System: Ames Salmonella typhimurium, Strain/Indicator: TA1535, Metabolic Activation: None, Method: Preincubation); “inactive; negative” (Test System: Ames Salmonella typhimurium, Strain/Indicator: TA1535, Metabolic Activation: Rat, Liver, S-9, Phenobarbital and 5,6-benzoflavone, Method: Preincubation). In addition, the mutagenic call was “inactive; negative” (Test System: Ames Salmonella typhimurium, Strain/Indicator: TA1537, Metabolic Activation: None, Method: Preincubation); “inactive; negative” (Test System: Ames Salmonella typhimurium, Strain/Indicator: TA1537, Metabolic Activation: Rat, Liver, S-9, Phenobarbital and 5,6-benzoflavone, Method: Preincubation); “inactive; negative” (Test System: E. coli, Strain/Indicator: WP2uvrA/pKM101, Metabolic Activation: None, Method: Preincubation); “inactive; negative” (Test System: E. coli, Strain/Indicator: WP2uvrA/pKM101, Metabolic Activation: Rat, Liver, S-9, Phenobarbital and 5,6-benzoflavone, Method: Preincubation).
On to `Cc1cccc(OCC(O)CNC(C)(C)C)c1C` (centres undefined), for which the mutagenic call under setting [3] was “inactive; negative”; the mutagenic call (Test System: AMES SALMONELLA TYPHIMURIUM, Strain/Indicator: TA98, Metabolic Activation: S-9, Method: STANDARD PLATE) was “inactive; negative”; the mutagenic call under setting [4] is “inactive; negative”; the mutagenic call (Test System: AMES SALMONELLA TYPHIMURIUM, Strain/Indicator: TA100, Metabolic Activation: S-9, Method: STANDARD PLATE) is “inactive; negative”; the mutagenic call (Test System: AMES SALMONELLA TYPHIMURIUM, Strain/Indicator: TA1535, Metabolic Activation: NONE, Method: STANDARD PLATE) is “inactive; negative”; the mutagenic call (Test System: AMES SALMONELLA TYPHIMURIUM, Strain/Indicator: TA1535, Metabolic Activation: S-9, Method: STANDARD PLATE) is “inactive; negative”. The mutagenic call reads like this: (Test System: AMES SALMONELLA TYPHIMURIUM, Strain/Indicator: TA1537, Metabolic Activation: NONE, Method: STANDARD PLATE) “inactive; negative”; (Test System: AMES SALMONELLA TYPHIMURIUM, Strain/Indicator: TA1537, Metabolic Activation: S-9, Method: STANDARD PLATE) “inactive; negative”; (Test System: AMES SALMONELLA TYPHIMURIUM, Strain/Indicator: TA1538, Metabolic Activation: NONE, Method: STANDARD PLATE) “inactive; negative”; (Test System: AMES SALMONELLA TYPHIMURIUM, Strain/Indicator: TA1538, Metabolic Activation: S-9, Method: STANDARD PLATE) “inactive; negative”; (Test System: E. COLI WP2, Strain/Indicator: WP2 UVRA, Metabolic Activation: NONE, Method: STANDARD PLATE) “inactive; negative”; (Test System: E. COLI WP2, Strain/Indicator: WP2 UVRA, Metabolic Activation: S-9, Method: STANDARD PLATE) “inactive; negative”.
As for `O=[N+]([O-])c1c2ccccc2cc2c1ccc1ccccc12`, the mutagenic call under setting [3] is “inactive; negative” and the mutagenic call under setting [4] was “inactive; negative”.
With `O=C(OCCBr)C(=O)OCCBr`, the mutagenic call reads like this: under setting [4], “active; positive”; (Test System: AMES SALMONELLA TYPHIMURIUM, Strain/Indicator: TA100, Metabolic Activation: RAT, LIVER, S-9, AROCLOR 1254, Method: STANDARD PLATE) “active; positive”.

Source of the values: PubChem BioAssay AID1259407 (Chemical Carcinogenesis Research Information System (CCRIS), 2018).
